Experimental data published in paper PMC3904457 (ACS medicinal chemistry letters, 2013).

Target: T1, COX-1 (Ovis aries, UniProt P05979)
T1 sequence (P05979 25-600): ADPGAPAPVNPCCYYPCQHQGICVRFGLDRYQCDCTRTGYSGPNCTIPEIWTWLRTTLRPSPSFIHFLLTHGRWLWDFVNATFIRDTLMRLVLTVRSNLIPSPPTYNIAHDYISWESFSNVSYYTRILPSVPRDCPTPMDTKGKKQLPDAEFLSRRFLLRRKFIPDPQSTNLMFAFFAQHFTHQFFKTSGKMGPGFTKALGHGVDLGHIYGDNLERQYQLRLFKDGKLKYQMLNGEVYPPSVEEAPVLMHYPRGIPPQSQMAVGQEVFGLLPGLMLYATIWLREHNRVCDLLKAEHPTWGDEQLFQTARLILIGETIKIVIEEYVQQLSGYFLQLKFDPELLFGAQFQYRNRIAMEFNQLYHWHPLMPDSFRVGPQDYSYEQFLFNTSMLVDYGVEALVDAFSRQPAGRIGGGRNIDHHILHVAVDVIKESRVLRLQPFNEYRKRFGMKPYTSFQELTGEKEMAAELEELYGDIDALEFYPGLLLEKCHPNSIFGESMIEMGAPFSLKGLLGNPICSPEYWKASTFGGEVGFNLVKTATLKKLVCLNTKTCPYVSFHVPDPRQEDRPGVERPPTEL
Assay: inhibition of COX-1-catalyzed oxidation of arachidonic acid
Type: biochemical
Details: at concentrations up to 1 mM

COX-1 inhibition (in words): not able to significantly inhibit COX-1
Compound: Cc1nc2c(c(C)c1O)CNC(=O)N2 [compound 13]
